# Data published in patent US10227323B2, “Glucosylceramide synthase inhibitors for the treatment of diseases” (BIOMARIN PHARMACEUTICAL INC., priority 2013, dated 2019).
# Target: T1, GCS (Canis lupus familiaris, UniProt A0A8I3MXG6)
# T1 sequence (A0A8I3MXG6 1-394): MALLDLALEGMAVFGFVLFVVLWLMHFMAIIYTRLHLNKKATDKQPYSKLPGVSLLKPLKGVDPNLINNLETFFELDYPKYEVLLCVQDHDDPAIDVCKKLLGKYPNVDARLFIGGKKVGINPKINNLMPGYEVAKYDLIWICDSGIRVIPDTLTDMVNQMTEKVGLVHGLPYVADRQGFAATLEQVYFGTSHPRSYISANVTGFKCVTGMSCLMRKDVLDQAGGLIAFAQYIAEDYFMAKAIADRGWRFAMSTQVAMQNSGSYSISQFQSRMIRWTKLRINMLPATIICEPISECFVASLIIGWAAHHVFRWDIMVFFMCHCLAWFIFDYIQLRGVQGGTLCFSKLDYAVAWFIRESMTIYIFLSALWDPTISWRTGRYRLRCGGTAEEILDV
# Test: Assay 1: GCS Enzymatic Assay (MDCK cell lysate, C6-NBD-Ceramide, LC/MS)
# Format: biochemical, canine
# Settings: Table 1; MDCK cell lysate; read-out: IC50 (nM) generated from Assay 1
# Method: This assay was modified based on the study by Larsen et al. (J. Lipid Res. 2011, 53, 282). Madin-Darby canine kidney (MDCK) cell lysate was prepared using M-PER Mammalian Protein Extraction Reagent (Thermal Scientific) in the presence of a protease inhibitor cocktail (Roche). Protein concentration was determined using BCA assay kit (Pierce). Sixty micrograms of MDCK cell lysate was incubated with various concentrations of a compound described herein from 0.001 μM-10 μM, respectively, in 100 mM Tris buffer (pH 7.5) containing 10 mM MgCl2, 1 mM dithiothreitol, 1 mM EGTA, 2 mM NAD, 100 μM UDP-glucose, 10 μM C6-NBD-Ceramide (Matreya LLC, Pleasant Gap, Pa.), 35 μM dioleoylphosphatidylcholine and 5 μM sulfatide (Sigma) in a final reaction volume of 100 μL at 37° C. for 1 hour. 0.1% DMSO was used as mock treatment or control. The reaction was terminated by adding 100 μL acetonitrile solution and subjected to LC/MS analysis.
# The quantitative analysis of NBD-Ceramide and glucosylceramide was performed on a Shimadzu ultra-fast liquid chromatography (Shimadzu, Japan) coupled with API 4000 triple quadrupole mass spectrometer (Applied Biosystems, Concord, Ontario, Canada). Sample separation was conducted on a Waters Xbridge™ BEH130 C18, 100 mm×4.6 mm i.d, 3.5 μm (Milford, Mass., USA). The mobile phase consisted of water and acetonitrile supplemented with 0.1% formic acid (v/v). The flow rate was 1.0 mL/min. The initial mobile phase was 20% acetonitrile and was ramped in a linear fashion to 50% acetonitrile in 0.4 min. From 0.4 to 1.5 min, the gradient was ramped to 98% acetonitrile, and then was held at […] until 8.0 min. Acetonitrile was reset to 20% in 1.5 min, and maintained until 10.0 min. The total run time was 10.0 min. The MS/MS detection was performed in ESI positive mode. The mass transition of NBD-Ceramide was m/z 576.36→558.40 under the collision energy of 15 V, and the mass transition of glucosylceramide was m/z 738.35→558.40 under 21V collision energy. The cell lysate was diluted with equal volume of acetonitrile. Aliquots of 50 μL diluted samples were added to 1.5 mL tubes, and 100 μL of acetonitrile containing internal standard (100 ng/mL tolbutamide) were added for protein precipitation. The mixture were vortexed and then centrifuged at 13000 rpm for 10 min. 70 μL of supernatant were mixed with 140 μL of H2O and the final solution were injected for LC/MS/MS analysis and IC50's and/or percent inhibitions calculated.
row,IC50,SMILES
1,50 to 5000 nM,"O=C(N[C@H](CN1CCCC1)[C@@H](O)c1cc2c(cc1F)OCCO2)C(F)(F)C1Cc2ccccc2C1 [Compound 12B, 2-(2,3-dihydro-1H-inden-2-yl)-2,2-difluoro-N-((1S,2R)-1-(7-fluoro-2,3-dihydrobenzo[b][1,4]dioxin-6-yl)-1-hydroxy-3-(pyrrolidin-1-yl)propan-2-yl)acetamide]"
2,50 to 5000 nM,"O=C(N[C@H](CN1CCCC1)[C@H](O)c1ccc2c(c1)OCCO2)C(F)(F)C1Cc2cc3nccnc3cc2C1 [Compound 13, 2-(7,8-dihydro-6H-cyclopenta[g]quinoxalin-7-yl)-N-((1R,2R)-1-(2,3-dihydrobenzo[b][1,4]dioxin-6-yl)-1-hydroxy-3-(pyrrolidin-1-yl)propan-2-yl)-2,2-difluoroacetamide]"
3,< 50 nM,"Cn1c(C(F)(F)C(=O)N[C@H](CN2CCCC2)[C@H](O)c2ccc3c(c2)OCCO3)cc2cc(Cl)ccc21 [Compound 14, 2-(5-chloro-1-methyl-1H-indol-2-yl)-N-((1R,2R)-1-(2,3-dihydrobenzo[b][1,4]dioxin-6-yl)-1-hydroxy-3-(pyrrolidin-1-yl)propan-2-yl)-2,2-difluoroacetamide]"
4,< 50 nM,"O=C(N[C@H](CN1CCCC1)[C@H](O)c1ccc2c(c1)OCCO2)C(F)(F)c1cc2cc(Cl)cc(Cl)c2o1 [Compound 15, 2-(5,7-dichlorobenzofuran-2-yl)-N-((1R,2R)-1-(2,3-dihydrobenzo[b][1,4]dioxin-6-yl)-1-hydroxy-3-(pyrrolidin-1-yl)propan-2-yl)-2,2-difluoroacetamide]"
5,< 50 nM,"O=C(N[C@H](CN1CCCC1)[C@H](O)c1ccc2c(c1)OCCO2)C(F)(F)CCc1cccc(-c2ccccn2)c1 [Compound 16, N-((1R,2R)-1-(2,3-dihydrobenzo[b][1,4]dioxin-6-yl)-1-hydroxy-3-(pyrrolidin-1-yl)propan-2-yl)-2,2-difluoro-4-(3-(pyridin-2-yl)phenyl)butanamide]"
6,50 to 5000 nM,"O=C(N[C@H](CN1CCCC1)[C@H](O)c1ccc2c(c1)OCCO2)C(F)(F)Cc1ccc2ccccc2c1 [Compound 17, N-((1R,2R)-1-(2,3-dihydrobenzo[b][1,4]dioxin-6-yl)-1-hydroxy-3-(pyrrolidin-1-yl)propan-2-yl)-2,2-difluoro-3-(naphthalen-2-yl)propanamide]"
7,< 50 nM,"O=C(N[C@H](CN1CCCC1)[C@H](O)c1ccc2c(c1)OCCO2)C(F)(F)c1cc2c(Cl)c(Cl)ccc2o1 [Compound 19, 2-(4,5-dichlorobenzofuran-2-yl)-N-((1R,2R)-1-(2,3-dihydrobenzo[b][1,4]dioxin-6-yl)-1-hydroxy-3-(pyrrolidin-1-yl)propan-2-yl)-2,2-difluoroacetamide]"
8,< 50 nM,"O=C(N[C@H](CN1CCCC1)[C@H](O)c1ccc2c(c1)OCCO2)C(F)(F)C1Cc2ccc(F)cc2C1 (stereo partly drawn) [Compound 21, N-((1R,2R)-1-(2,3-dihydrobenzo[b][1,4]dioxin-6-yl)-1-hydroxy-3-(pyrrolidin-1-yl)propan-2-yl)-2,2-difluoro-2-(5-fluoro-2,3-dihydro-1H-inden-2-yl)acetamide]"
9,< 50 nM,"O=C(N[C@H](CN1CCCC1)[C@H](O)c1ccc2c(c1)OCCO2)C(F)(F)CCc1ccc2ccccc2c1 [Compound 22, N-((1R,2R)-1-(2,3-dihydrobenzo[b][1,4]dioxin-6-yl)-1-hydroxy-3-(pyrrolidin-1-yl)propan-2-yl)-2,2-difluoro-4-(naphthalen-2-yl)butanamide]"
10,< 50 nM,"O=C(N[C@H](CN1CCCC1)[C@H](O)c1ccc2c(c1)OCCO2)C(F)(F)c1cc2ccccc2o1 [Compound 23, 2-(benzofuran-2-yl)-N-((1R,2R)-1-(2,3-dihydrobenzo[b][1,4]dioxin-6-yl)-1-hydroxy-3-(pyrrolidin-1-yl)propan-2-yl)-2,2-difluoroacetamide]"
11,< 50 nM,"O=C(N[C@H](CN1CCCC1)[C@H](O)c1ccc2c(c1)OCCO2)C(F)(F)c1cc2cc(F)ccc2o1 [Compound 24, N-((1R,2R)-1-(2,3-dihydrobenzo[b][1,4]dioxin-6-yl)-1-hydroxy-3-(pyrrolidin-1-yl)propan-2-yl)-2,2-difluoro-2-(5-fluorobenzofuran-2-yl)acetamide]"
12,< 50 nM,"O=C(N[C@H](CN1CCCC1)[C@H](O)c1ccc2c(c1)OCCO2)C(F)(F)c1cc2cc(F)ccc2s1 [Compound 28, N-((1R,2R)-1-(2,3-dihydrobenzo[b][1,4]dioxin-6-yl)-1-hydroxy-3-(pyrrolidin-1-yl)propan-2-yl)-2,2-difluoro-2-(5-fluorobenzo[b]thiophen-2-yl)acetamide]"
13,< 50 nM,"O=C(N[C@H](CN1CCCC1)[C@H](O)c1ccc2c(c1)OCCO2)C(F)(F)c1cc2cc(C(F)(F)F)ccc2o1 [Compound 30, N-((1R,2R)-1-(2,3-dihydrobenzo[b][1,4]dioxin-6-yl)-1-hydroxy-3-(pyrrolidin-1-yl)propan-2-yl)-2,2-difluoro-2-(5-(trifluoromethyl)benzofuran-2-yl)acetamide]"

# Same assay, conditions: Table 1; values marked *; MDCK cell lysate
row,SMILES,% inhibition generated from Assay 1
1,"O=C(N[C@H](CN1CCCC1)[C@H](O)c1ccc2c(c1)OCCO2)C(F)(F)c1cc2cc(Cl)c(Cl)cc2o1 [Compound 18, 2-(5,6-dichlorobenzofuran-2-yl)-N-((1R,2R)-1-(2,3-dihydrobenzo[b][1,4]dioxin-6-yl)-1-hydroxy-3-(pyrrolidin-1-yl)propan-2-yl)-2,2-difluoroacetamide]",B* (the compound had a % inhibition of greater than or equal to about 3% but less than about 50%)
2,"O=C(N[C@H](CN1CCCC1)[C@H](O)c1ccc2c(c1)OCCO2)C(F)(F)Cc1cccc(-c2ccccn2)c1 [Compound 20, N-((1R,2R)-1-(2,3-dihydrobenzo[b][1,4]dioxin-6-yl)-1-hydroxy-3-(pyrrolidin-1-yl)propan-2-yl)-2,2-difluoro-3-(3-(pyridin-2-yl)phenyl)propanamide]",B* (the compound had a % inhibition of greater than or equal to about 3% but less than about 50%)
3,"O=C(N[C@H](CN1CCCC1)[C@@H](O)c1ccc2c(c1)OCCO2)C(F)(F)CCc1ccc2ccccc2c1 [Compound 22K, N-((1S,2R)-1-(2,3-dihydrobenzo[b][1,4]dioxin-6-yl)-1-hydroxy-3-(pyrrolidin-1-yl)propan-2-yl)-2,2-difluoro-4-(naphthalen-2-yl)butanamide]",B* (the compound had a % inhibition of greater than or equal to about 3% but less than about 50%)
4,"O=C(N[C@H](CN1CCCC1)[C@H](O)c1ccc2c(c1)OCCO2)C(F)(F)/C=C/c1ccc(Cl)cc1 [Compound 25, (E)-4-(4-chlorophenyl)-N-((1R,2R)-1-(2,3-dihydrobenzo[b][1,4]dioxin-6-yl)-1-hydroxy-3-(pyrrolidin-1-yl)propan-2-yl)-2,2-difluorobut-3-enamide]",B* (the compound had a % inhibition of greater than or equal to about 3% but less than about 50%)
5,"NC1CC2CCC(C1)N2C[C@@H](NC(=O)C(F)(F)c1cc2cc(Cl)ccc2o1)[C@H](O)c1ccc2c(c1)OCCO2 (stereo partly drawn) [Compound 26, N-((1R,2R)-3-(3-amino-8-azabicyclo[3.2.1]octan-8-yl)-1-(2,3-dihydrobenzo[b][1,4]dioxin-6-yl)-1-hydroxypropan-2-yl)-2-(5-chlorobenzofuran-2-yl)-2,2-difluoroacetamide]",B* (the compound had a % inhibition of greater than or equal to about 3% but less than about 50%)
